According to US11787802B2, “Dihydrobenzimidazolones for medical treatment” (C4 Therapeutics, Inc., priority 2017, dated 2023):

Biological target: hCereblon(M1-L442)_hDDB1(M1-H1140) (Homo sapiens (Human), UniProt Q96SW2)
Experiment: Fluorescence direct binding protocol (tryptophan fluorescence titration)
Details: fluorescence titration at 20° C., excited at 280 nm, recorded at 340 nm; protein 5.0 E−8 M; assay buffer 50 mM Hepes 7.4 200 mM NaCl; read-out: Fluorescence h-Cereblon_DDB1 Mean Kd_EQ
Experimental: Fluorescence Direct Binding Protocol
Determination of the affinities of compounds to protein containing one or more tryptophan is measurable by monitoring the fluorescence emission in direct mode. The measurements depending on the protein available amounts are performed either manually in a cuvette on ISS-PC1 photon counting spectrofluorometer or automatically in well plates on a fluorescence plate reader device. Fluorescence titrations are performed at 20° C. in the chosen binding assay buffer by using a defined constant protein concentration against ligand concentration variations. Small aliquots of known ligand concentration solubilized in DMSO were added and the fluorescence, excited at 280 nm, was recorded at 340 nm. The fluorescence intensity was corrected for protein dilution and for the filter effect (Birdsall et al.^69). The corrected fluorescence intensity was plotted against the ligand concentration and fitted using a four-parameter sigmoidal function, from which the equilibrium dissociation constant Kd was computed using the law of mass action assuming a 1:1 protein-ligand complex (Eftink, 1997^70).
Process • 1) Optimization of measurement parameters to minimize protein consumption and to minimize the dilution effect and the DMSO content • 2) Titration measurements of the protein against ligand by at least 12 titration steps to obtain a good s-curve fit • 3) Repeat the same titration measurements with the ligand alone to enable correction • 4) Check the stability of the protein once by titration against DMSO alone • 5) Determination of the molar extinction coefficients of the ligand at 280 and 340 nm with help of an UV-spectrophotometer • 6) Use Excel template for the correction of the measured raw data • 7) Use GraphPad Prism software for the quadratic binding fit and the KD evaluation.

Chain of hCereblon(M1-L442)_hDDB1(M1-H1140) (Q96SW2 whole entry): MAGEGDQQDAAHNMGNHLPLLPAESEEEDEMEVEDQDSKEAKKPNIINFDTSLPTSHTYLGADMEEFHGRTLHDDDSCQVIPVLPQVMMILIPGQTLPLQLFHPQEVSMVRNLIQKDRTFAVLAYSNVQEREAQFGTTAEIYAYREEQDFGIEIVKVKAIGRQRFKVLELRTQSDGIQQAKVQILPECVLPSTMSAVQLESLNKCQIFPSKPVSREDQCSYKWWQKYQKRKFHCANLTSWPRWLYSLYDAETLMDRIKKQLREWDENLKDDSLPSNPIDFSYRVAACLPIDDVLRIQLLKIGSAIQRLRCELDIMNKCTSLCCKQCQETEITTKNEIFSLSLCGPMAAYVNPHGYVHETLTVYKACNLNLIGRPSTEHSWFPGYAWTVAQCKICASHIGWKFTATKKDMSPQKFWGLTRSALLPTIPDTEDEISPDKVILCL
Chain of hCereblon(M1-L442)_hDDB1(M1-H1140) (Q16531 whole entry partner): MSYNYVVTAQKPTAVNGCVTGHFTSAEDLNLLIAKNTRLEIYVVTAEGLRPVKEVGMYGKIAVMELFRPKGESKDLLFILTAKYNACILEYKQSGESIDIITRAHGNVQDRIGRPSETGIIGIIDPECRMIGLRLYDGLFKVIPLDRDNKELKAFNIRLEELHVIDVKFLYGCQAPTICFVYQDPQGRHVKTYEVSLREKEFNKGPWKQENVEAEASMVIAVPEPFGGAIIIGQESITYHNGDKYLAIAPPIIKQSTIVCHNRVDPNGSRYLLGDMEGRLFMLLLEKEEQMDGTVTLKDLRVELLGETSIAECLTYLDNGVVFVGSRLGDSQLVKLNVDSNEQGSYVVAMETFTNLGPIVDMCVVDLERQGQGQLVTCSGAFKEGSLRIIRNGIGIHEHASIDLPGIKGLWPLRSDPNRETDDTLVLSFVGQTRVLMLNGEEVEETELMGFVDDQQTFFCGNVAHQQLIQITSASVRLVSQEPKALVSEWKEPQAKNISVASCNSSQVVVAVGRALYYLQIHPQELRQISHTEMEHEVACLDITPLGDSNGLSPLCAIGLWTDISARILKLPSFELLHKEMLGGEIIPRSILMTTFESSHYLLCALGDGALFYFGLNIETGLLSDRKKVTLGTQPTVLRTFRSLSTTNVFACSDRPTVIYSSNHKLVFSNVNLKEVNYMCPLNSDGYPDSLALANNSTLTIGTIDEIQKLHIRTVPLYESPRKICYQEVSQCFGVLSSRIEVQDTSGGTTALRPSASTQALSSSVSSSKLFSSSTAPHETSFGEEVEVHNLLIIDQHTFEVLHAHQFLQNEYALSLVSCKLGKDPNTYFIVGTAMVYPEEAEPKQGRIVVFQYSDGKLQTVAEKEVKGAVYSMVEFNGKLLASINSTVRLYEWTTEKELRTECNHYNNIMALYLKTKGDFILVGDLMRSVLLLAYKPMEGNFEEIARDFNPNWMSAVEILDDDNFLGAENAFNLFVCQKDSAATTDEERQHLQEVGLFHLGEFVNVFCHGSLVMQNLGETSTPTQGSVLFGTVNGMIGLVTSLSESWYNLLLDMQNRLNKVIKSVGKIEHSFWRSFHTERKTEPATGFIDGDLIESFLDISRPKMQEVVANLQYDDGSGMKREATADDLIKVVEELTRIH

Row | SMILES | Kd [nM]
1 | CNC(=O)c1ccc2c(c1)nc(C1CCOCC1)n2-c1ccc2[nH]c(=O)[nH]c2c1 [Example 64, N-Methyl-2′-oxo-2-(tetrahydro-2H-pyran-4-yl)-2′,3′-dihydro-1′H-[1,5′-bibenzo[d]imidazole]-5-carboxamide] | 45
2 | CNC(=O)c1ccc2c(c1)nc(-c1cc[nH]c1)n2-c1ccc2[nH]c(=O)[nH]c2c1 [Example 66, N-Methyl-2′-oxo-2-(1H-pyrrol-3-yl)-2′,3′-dihydro-1′H-[1,5′-bibenzo[d]imidazole]-5-carboxamide] | 51
3 | O=C(Nc1ccc2[nH]c(=O)[nH]c2c1)C1CCc2ccccc21 (stereo not drawn) [Example 69, N-(2-Oxo-2,3-dihydro-1H-benzo[d]imidazol-5-yl)-2,3-dihydro-1H-indene-1-carboxamide] | 29
4 | CN(C(=O)c1cnc2[nH]c(=O)[nH]c2c1)c1ccccc1 [Example 76, N-Methyl-2-oxo-N-phenyl-2,3-dihydro-1H-imidazo[4,5-b]pyridine-6-carboxamide] | 41
5 | O=C(Nc1ccccc1)c1ccc2[nH]c(=O)[nH]c2c1 [Example 77, 2-Oxo-N-phenyl-2,3-dihydro-1H-benzo[d]imidazole-5-carboxamide] | 42
6 | CC(=O)Nc1ccc(CC(=O)Nc2ccc3[nH]c(=O)[nH]c3c2)cc1 [Example 78, 2-(4-Acetamidophenyl)-N-(2-oxo-2,3-dihydro-1H-benzo[d]imidazol-5-yl)acetamide] | 23
7 | O=C(Nc1ccc(Nc2ccccc2)cc1)Nc1ccc2[nH]c(=O)[nH]c2c1 [Example 87, 1-(2-Oxo-2,3-dihydro-1H-benzo[d]imidazol-5-yl)-3-(4-(phenylamino)phenyl)urea] | 27
8 | O=C(Nc1ccccc1)Nc1ccc2[nH]c(=O)[nH]c2c1 [Example 88, 1-(2-Oxo-2,3-dihydro-1H-benzo[d]imidazol-5-yl)-3-phenylurea] | 17
9 | COC(=O)c1cccc2c1CCN2C(=O)Nc1ccc2[nH]c(=O)[nH]c2c1 [Example 89, Methyl 1-((2-oxo-2,3-dihydro-1H-benzo[d]imidazol-5-yl)carbamoyl)indoline-4-carboxylate] | 25
10 | CC(=O)NCCC(=O)Nc1ccc2[nH]c(=O)[nH]c2c1 [Example 90, 3-Acetamido-N-(2-oxo-2,3-dihydro-1H-benzo[d]imidazol-5-yl)propanamide] | 19
11 | COC(=O)c1ccc2c(c1)CCN2C(=O)Nc1ccc2[nH]c(=O)[nH]c2c1 [Example 92, Methyl 1-((2-oxo-2,3-dihydro-1H-benzo[d]imidazol-5-yl)carbamoyl)indoline-5-carboxylate] | 33
12 | O=C(c1cnc2[nH]c(=O)[nH]c2c1)N1CCCc2ccccc21 [Example 95, 6-(1,2,3,4-Tetrahydroquinoline-1-carbonyl)-1,3-dihydro-2H-imidazo[4,5-b]pyridin-2-one] | 20
13 | COC(=O)c1cccc2c1CCCN2C(=O)Nc1ccc2[nH]c(=O)[nH]c2c1 [Example 98, Methyl 1-((2-oxo-2,3-dihydro-1H-benzo[d]imidazol-5-yl)carbamoyl)-1,2,3,4-tetrahydroquinoline-5-carboxylate] | 86
14 | NS(=O)(=O)c1ccc(CC(=O)Nc2ccc3[nH]c(=O)[nH]c3c2)cc1 [Example 99, N-(2-Oxo-2,3-dihydro-1H-benzo[d]imidazol-5-yl)-2-(4-sulfamoylphenyl)acetamide] | 46
15 | NS(=O)(=O)c1ccc(C(=O)Nc2ccc3[nH]c(=O)[nH]c3c2)cc1 [Example 100, N-(2-Oxo-2,3-dihydro-1H-benzo[d]imidazol-5-yl)-4-sulfamoylbenzamide] | 29
16 | CNC(=O)c1nc2ccccc2n1-c1ccc2[nH]c(=O)[nH]c2c1 [Example 102, N-Methyl-1-(2-oxo-1,3-dihydrobenzimidazol-5-yl)benzimidazole-2-carboxamide] | 130

Molecules with a lower Kd, results first:

Row | Kd [nM] | SMILES
17 | 9 | CNC(=O)c1ccc2c(c1)nc(-c1cn(C)cn1)n2-c1ccc2[nH]c(=O)[nH]c2c1 [Example 65, N-Methyl-2-(1-methyl-1H-imidazol-4-yl)-2′-oxo-2′,3′-dihydro-1′H-[1,5′-bibenzo[d]imidazole]-5-carboxamide]
18 | 5 | O=C(Nc1ccccc1)c1cnc2[nH]c(=O)[nH]c2c1 [Example 67, 2-Oxo-N-phenyl-2,3-dihydro-1H-imidazo[4,5-b]pyridine-6-carboxamide]
19 | 9 | O=C(Nc1ccc2[nH]c(=O)[nH]c2c1)c1coc2ccccc12 [Example 68, N-(2-Oxo-2,3-dihydro-1H-benzo[d]imidazol-5-yl)benzofuran-3-carboxamide]
20 | 1 | Nc1ccc(CC(=O)Nc2ccc3[nH]c(=O)[nH]c3c2)cc1 [Example 70, 2-(4-Aminophenyl)-N-(2-oxo-2,3-dihydro-1H-benzo[d]imidazol-5-yl)acetamide]
21 | 16 | O=C(Nc1ccc2[nH]c(=O)[nH]c2c1)[C@H]1CCCc2ccccc21 [Example 71, (S)—N-(2-Oxo-2,3-dihydro-1H-benzo[d]imidazol-5-yl)-1,2,3,4-tetrahydronaphthalene-1-carboxamide]
22 | 14 | O=C(Nc1ccc2[nH]c(=O)[nH]c2c1)[C@@H]1CCCc2ccccc21 [Example 72, (R)—N-(2-Oxo-2,3-dihydro-1H-benzo[d]imidazol-5-yl)-1,2,3,4-tetrahydronaphthalene-1-carboxamide]
23 | 11 | O=C(Nc1ccc2[nH]c(=O)[nH]c2c1)c1ccccc1 [Example 73, N-(2-Oxo-2,3-dihydro-1H-benzo[d]imidazol-5-yl)benzamide]
24 | 2 | CC(=O)Nc1ccc(C(=O)Nc2ccc3[nH]c(=O)[nH]c3c2)cc1 [Example 74, 4-Acetamido-N-(2-oxo-2,3-dihydro-1H-benzo[d]imidazol-5-yl)benzamide]
25 | 7 | CC(=O)Nc1cccc(C(=O)Nc2ccc3[nH]c(=O)[nH]c3c2)c1 [Example 75, 3-Acetamido-N-(2-oxo-2,3-dihydro-1H-benzo[d]imidazol-5-yl)benzamide]
26 | 4 | CNC(=O)c1ccc2c(c1)nc(C(C)C)n2-c1cnc2[nH]c(=O)[nH]c2c1 [Example 79, 2-Isopropyl-N-methyl-1-(2-oxo-1,3-dihydroimidazo[4,5-b]pyridin-6-yl)benzimidazole-5-carboxamide]
27 | 15 | CC(=O)NCCc1nc2ccccc2n1-c1ccc2[nH]c(=O)[nH]c2c1 [Example 80, N-[2-[1-(2-Oxo-1,3-dihydrobenzimidazol-5-yl)benzimidazol-2-yl]ethyl]acetamide]
28 | 4 | CNC(=O)CCc1nc2ccccc2n1-c1ccc2[nH]c(=O)[nH]c2c1 [Example 81, N-Methyl-3-[1-(2-oxo-1,3-dihydrobenzimidazol-5-yl)benzimidazol-2-yl]propanamide]
29 | 3 | COC(=O)c1nc2ccccc2n1-c1ccc2[nH]c(=O)[nH]c2c1 [Example 82, Methyl 1-(2-oxo-1,3-dihydrobenzimidazol-5-yl)benzimidazole-2-carboxylate]
30 | 3 | O=c1[nH]c2ccc(-n3cnc4ccccc43)cc2[nH]1 [Example 83, 5-(Benzimidazol-1-yl)-1,3-dihydrobenzimidazol-2-one]
31 | 3 | CC(O)c1nc2ccccc2n1-c1ccc2[nH]c(=O)[nH]c2c1 (stereo not drawn) [Example 84, 5-[2-(1-Hydroxyethyl)benzimidazol-1-yl]-1,3-dihydrobenzimidazol-2-one]
32 | 3 | O=c1[nH]c2ccc(-n3c(C(O)c4ccccc4)nc4ccccc43)cc2[nH]1 (stereo not drawn) [Example 85, 5-[2-[Hydroxy(phenyl)methyl]benzimidazol-1-yl]-1,3-dihydrobenzimidazol-2-one]
33 | 4 | CC(=O)N1CCC(N(C)C(=O)c2ccc3[nH]c(=O)[nH]c3c2)CC1 [Example 86, N-(1-Acetylpiperidin-4-yl)-N-methyl-2-oxo-2,3-dihydro-1H-benzo[d]imidazole-5-carboxamide]
34 | 5 | CC(=O)N1CCC(C(=O)Nc2ccc3[nH]c(=O)[nH]c3c2)CC1 [Example 91, 1-Acetyl-N-(2-oxo-2,3-dihydro-1H-benzo[d]imidazol-5-yl)piperidine-4-carboxamide]
35 | 10 | CNC(=O)c1cccc2c1CCN2C(=O)Nc1ccc2[nH]c(=O)[nH]c2c1 [Example 93, N4-Methyl-N1-(2-oxo-2,3-dihydro-1H-benzo[d]imidazol-5-yl)indoline-1,4-dicarboxamide]
36 | < 1 | O=C(NCc1ccccc1)Nc1ccc2[nH]c(=O)[nH]c2c1 [Example 94, 1-Benzyl-3-(2-oxo-2,3-dihydro-1H-benzo[d]imidazol-5-yl)urea]
37 | 9 | CN(C(=O)c1ccc2[nH]c(=O)[nH]c2c1)c1ccccc1 [Example 96, N-Methyl-2-oxo-N-phenyl-2,3-dihydro-1H-benzo[d]imidazole-5-carboxamide]
38 | 9 | O=C(c1ccc2[nH]c(=O)[nH]c2c1)N1CCCc2ccccc21 [Example 97, 5-(1,2,3,4-Tetrahydroquinoline-1-carbonyl)-1,3-dihydro-2H-benzo[d]imidazol-2-one]
39 | 14 | CC(=O)Nc1ccc(NC(=O)Nc2ccc3[nH]c(=O)[nH]c3c2)cc1 [Example 101, N-(4-(3-(2-oxo-2,3-dihydro-1H-benzo[d]imidazol-5-yl)ureido)phenyl)acetamide]
